In article PMC11538426 (Scientific Reports, 2024):

What was measured:
[1] = test system: monocyte-derived DCs (moDCs); type: cell-based, human; conditions: rCD40L 5 µg/mL, 72 h
CD3+ T cells = conditions: cited from earlier work
monocytes = conditions: cited from earlier work

Substance	Differentiation of cells within moDC cultures to CD14neg DC phenotype ([1]; after 7 days GM-CSF/IL-4, Fig. 1a)	Proliferative capacity of moDCs (Ki67 expression) ([1]; Fig. 1b)	Induction of IL-12p70 in isolated CD3+ T cells in absence of DC engagement (CD3+ T cells)	Differentiation of monocytes to CD14neg cells (monocytes)
rCD40L: recombinant CD40 ligand (BioLegend), used at 5 µg/mL	near-total differentiation of cells to the CD14^neg DC phenotype	not associated with a significant change in the proliferative capacity	–	–
RSKAKNPLYR linked to R8 [IK14800]	–	–	contributes to induction of IL-12p70	does not promote differentiation of monocytes to CD14^neg cells
